This series can be described thus: collision cross section in nitrogen (drift tube, single-field); higher = larger gas-phase ion size.
[1] abbreviates: ion type: [M+H], ion source: APCI, ion mode: Positive.
[2] abbreviates: ion type: [M+], ion source: APCI, ion mode: Positive.
Setting [3] is: ion type: [M-H], ion source: ESI, ion mode: Negative.
[4] abbreviates: ion type: [M+H], ion source: ESI, ion mode: Positive.
Setting [5] is: ion type: [M+Na], ion source: ESI, ion mode: Positive.

Structures can show the parent of a compound that is named as a salt.
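Further: chemical standards at 10 µM analysed by drift tube IMS-QTOF MS in about 3.95 torr nitrogen, mean of duplicate injections differing ≤1%, mass error below 10 ppm.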

`c1ccc(Nc2cccc3ccccc23)cc1` [N-Phenyl-1-naphthylamine]: the “collision cross section in nitrogen” value under setting [1] is on record as 149.7 Å², the “collision cross section in nitrogen” value under setting [2] is recorded as 148.7 Å² and the “collision cross section in nitrogen” value under setting [3] is listed as 152.1 Å². For the compound `c1ccc(Nc2ccc3ccccc3c2)cc1` [N-Phenyl-2-naphthylamine], the “collision cross section in nitrogen” value stood at 150 Å² under setting [1], 151.3 Å² under setting [4] and 149.2 Å² under setting [2].

For the compound `CCCCCCCCC(=O)NCc1ccc(O)c(OC)c1` [N-Vanillylnonanamide], the “collision cross section in nitrogen” value under setting [5] is given as 178 Å². Regarding `CCCCCCCCCCCC(=O)NCCCN(C)C` [N-[3-(Dimethylamino)propyl]dodecanamide], the “collision cross section in nitrogen” value is, setting by setting: under setting [1], 185.5 Å²; under setting [4], 185.2 Å²; under setting [5], 181.8 Å². The matching figures for `CNC(=O)C(c1ccccc1)c1ccccc1` [N-methyl-alpha-phenylbenzeneacetamide]: 153.4 Å², 152.9 Å² and 162.2 Å². With `CCn1cc(C(=O)O)c(=O)c2ccc(C)nc21` [Nalidixic acid], the “collision cross section in nitrogen” value under setting [1] came to 147.5 Å², the “collision cross section in nitrogen” value under setting [4] was 147.8 Å² and the “collision cross section in nitrogen” value under setting [5] was 161.1 Å². In the case of `CCN(CC)C(=O)C(C)Oc1cccc2ccccc12` (stereo not drawn) [Napropamide], the “collision cross section in nitrogen” value by setting is: under setting [1], 163.8 Å²; under setting [4], 164.2 Å²; under setting [5], 172 Å².

For the compound `O=C(O)c1ccccc1C(=O)Nc1cccc2ccccc12` [Naptalam], the “collision cross section in nitrogen” value is reported as 170.9 Å² under setting [5] and 168.6 Å² under setting [3]. On to `Cc1cccc(C)c1NC(=O)CN1CCCC1=O` [Nefiracetam], for which the “collision cross section in nitrogen” value under setting [5] stood at 167.3 Å².

In the case of `COc1ccc(S(=O)(=O)N2C(=O)[C@@](c3ccccc3OC)(N3C[C@H](O)C[C@H]3C(=O)N(C)C)c3cc(Cl)ccc32)c(OC)c1` [Nelivaptan], the “collision cross section in nitrogen” value is, setting by setting: under setting [1], 231.8 Å²; under setting [4], 230.6 Å²; under setting [5], 233.3 Å²; under setting [3], 233.1 Å².

Consider `CCC(C)(CCC(C)C)C(=O)O` (stereo not drawn) [Neodecanoic acid], for which the “collision cross section in nitrogen” value under setting [3] came out at 145.2 Å². `CC(C)(COC(=O)c1ccccc1)COC(=O)c1ccccc1` [Neopentyl glycol dibenzoate]: under setting [5], the “collision cross section in nitrogen” value turned out to be 180.7 Å². `CC(C)(COCC1CO1)COCC1CO1` (stereo not drawn) [Neopentyl glycol diglycidyl ether]: under setting [5], the “collision cross section in nitrogen” value was determined as 148.2 Å².

Take `NC(=O)c1cccnc1` [Niacinamide]: the “collision cross section in nitrogen” value under setting [1] is reported as 125.7 Å². Regarding `COC(=O)C1=C(C)NC(C)=C(C(=O)OCCN(C)Cc2ccccc2)C1c1cccc([N+](=O)[O-])c1` (stereo not drawn) [Nicardipine hydrochloride], the “collision cross section in nitrogen” value is given as 213 Å² under setting [1]; 212.6 Å² under setting [4]; 211.2 Å² under setting [5]; 208.8 Å² under setting [2]; 214.2 Å² under setting [3]. `COc1cc(OC)nc(NC(=O)NS(=O)(=O)c2ncccc2C(=O)N(C)C)n1` [Nicosulfuron]: the “collision cross section in nitrogen” value under setting [5] is given as 196.2 Å². `CN1CCC[C@H]1c1cccnc1` [Nicotine sulfate (2:1)]: the “collision cross section in nitrogen” value is, setting by setting: under setting [1], 137 Å²; under setting [4], 137.7 Å². Take `O=C(O)c1cccnc1` [Nicotinic acid]: the “collision cross section in nitrogen” value under setting [4] worked out at 124.2 Å².

Regarding `OCc1cccnc1` [Nicotinyl alcohol], the “collision cross section in nitrogen” value was 119.2 Å² under setting [1] and 119.8 Å² under setting [4]. For the compound `CC1(C)NC(=O)N(c2ccc([N+](=O)[O-])c(C(F)(F)F)c2)C1=O` [Nilutamide], the “collision cross section in nitrogen” value under setting [3] amounted to 162.8 Å². On to `COC(=O)C1=C(C)NC(C)=C(C(=O)OCC(C)C)C1c1ccccc1[N+](=O)[O-]` (stereo not drawn) [Nisoldipine], for which, under setting [5], the “collision cross section in nitrogen” value came to 195.5 Å². With `O=[N+]([O-])c1ccc([As](=O)(O)O)cc1` [Nitarsone], the “collision cross section in nitrogen” value under setting [4] is listed as 144.4 Å² and the “collision cross section in nitrogen” value under setting [3] is 138.9 Å². For the compound `CCCN(CCC)c1c([N+](=O)[O-])cc(S(C)(=O)=O)cc1[N+](=O)[O-]` [Nitralin], the “collision cross section in nitrogen” value under setting [3] was 177 Å². As for `O=[N+]([O-])O` [Nitric acid, calcium salt (2:1)], the “collision cross section in nitrogen” value under setting [3] amounted to 104.5 Å². Turning to `CNC(=C[N+](=O)[O-])NCCSCc1csc(CN(C)C)n1` [Nizatidine], the “collision cross section in nitrogen” value reads like this: under setting [1], 171.3 Å²; under setting [4], 171 Å²; under setting [5], 178.1 Å²; under setting [3], 181.9 Å². Regarding `CN1Cc2c(N)cccc2C(c2ccccc2)C1` (stereo not drawn) [Nomifensine], the “collision cross section in nitrogen” value by setting is: under setting [1], 155.8 Å²; under setting [4], 156.2 Å². For `O=C(O)CCCCCCCC(=O)O` [Nonanedioic acid], the “collision cross section in nitrogen” value under setting [3] was 140.7 Å². Same read-out and setting: the value for `CCCCCCCCC(=O)O` [Nonanoic acid] was 146.2 Å². Same read-out and setting: the value for `CC(Cc1ccc(O)c(O)c1)C(C)Cc1ccc(O)c(O)c1` (stereo not drawn) [Nordihydroguaiaretic acid] was 167.5 Å². In the case of `C#C[C@]1(O)CC[C@H]2[C@@H]3CCC4=CC(=O)CC[C@@H]4[C@H]3CC[C@@]21C` [Norethindrone], under setting [4], the “collision cross section in nitrogen” value came to 178.1 Å². For the compound `CNc1cnn(-c2cccc(C(F)(F)F)c2)c(=O)c1Cl` [Norflurazon], the “collision cross section in nitrogen” value runs as follows: under setting [1], 162.7 Å²; under setting [4], 162.4 Å²; under setting [5], 171.9 Å²; under setting [3], 160.9 Å². As to `O=C(NC(=O)c1c(F)cccc1F)Nc1ccc(OC(F)(F)C(F)OC(F)(F)F)c(Cl)c1` (stereo not drawn) [Novaluron], the “collision cross section in nitrogen” value under setting [3] is 204.4 Å². Take `OC(c1ccc(F)cc1)(c1cncnc1)c1ccccc1Cl` (stereo not drawn) [Nuarimol]: the “collision cross section in nitrogen” value under setting [1] was determined as 171.6 Å², the “collision cross section in nitrogen” value under setting [4] amounted to 171.2 Å² and the “collision cross section in nitrogen” value under setting [3] is listed as 170.7 Å². Turning to `CCOP(=S)(S)OCC` [O,O′-Diethyl hydrogen dithiophosphate], the “collision cross section in nitrogen” value under setting [3] worked out at 135 Å². The same measure, in the same setting: the figure for `CCCCCCCCCCCCCCCCCC(=O)O` [Octadecanoic acid] is 177.2 Å²; for `CCCCCCCCCCCCCCCCCCOS(=O)(=O)O` [Octadecyl sulfate sodium salt] it is 189.8 Å². In the case of `CCCCC(CC)COC(=O)C=Cc1ccc(OC)cc1` (stereo not drawn) [Octinoxate], the “collision cross section in nitrogen” value under setting [5] was determined as 184.1 Å². Consider `CC(C)(C)CC(C)(C)c1ccc(O)c(-n2nc3ccccc3n2)c1` [Octrizole], for which the “collision cross section in nitrogen” value runs as follows: under setting [1], 186.3 Å²; under setting [3], 190 Å². Turning to `CCCCCCCCO[C@@H]1O[C@H](CO)[C@@H](O)[C@H](O)[C@H]1O` [Octyl beta-D-glucopyranoside], the “collision cross section in nitrogen” value was 181.2 Å² under setting [5] and 180.1 Å² under setting [3]. For `CCCCCCCCCCOC(=O)c1ccccc1C(=O)OCCCCCCCC` [Octyl decyl phthalate], the “collision cross section in nitrogen” value stood at 222.5 Å² under setting [4] and 219.1 Å² under setting [5].

As for `CCCCCCCCOC(=O)c1cc(O)c(O)c(O)c1` [Octyl gallate], the “collision cross section in nitrogen” value under setting [3] is on record as 171.5 Å². With `CCCCCCCCOC(=O)c1ccccc1C(=O)O` [Octyl hydrogen phthalate], the “collision cross section in nitrogen” value under setting [5] is 181.5 Å² and the “collision cross section in nitrogen” value under setting [3] is 168 Å².

For the origin of these results see the supplement of paper PMC12317010.
